Test results as given in US20120302566A1, “INDANYLOXYDIHYDROBENZOFURANYLACETIC ACIDS” (BOEHRINGER INGELHEIM INTERNATIONAL GMBH, priority 2010, published 2012).

Biological target: human GPR40 receptor (Homo sapiens, UniProt O14842)
Test: IP1 accumulation measurements using the IPOne assay system
Format: cell-based
Settings: IP1 accumulation (IPOne HTRF), 1 hour stimulation; 1321N1 cells stably expressing human GPR40; read-out: EC50 values on GPR40 determined as described in (B)
Experimental: (B) IP1 accumulation measurements using the IPOne assay system—1321N1 cells stably expressing human GPR40 receptor (Euroscreen, Belgium) were seeded 24 h before the assay in black clear-bottom collagen-coated 384-well plates in culture medium containing 10% FCS, 1% Na-Pyruvate and 400 μg/mL G418. IP1 is assayed according to the Manufacturer's description (Cisbio Bioassays, France). In brief, the assay is started by substitution of the culture medium by stimulation buffer (Hepes 10 mM, CaCl2 1 mM, MgCl2 0.5 mM, KCl 4.2 mM, NaCl 146 mM and glucose 5.5 mM, pH 7.4) without LiCl. Cells are stimulated for 1 hour at 37°, 10% CO2 by addition of the compounds that were diluted in stimulation buffer containing LiCl yielding a final LiCl concentration of 50 mM. Assays are stopped by adding HTRF-conjugates (IP1-d2 and Anti-IP1 cryptate Tb) and lysis buffer, provided by the manufacturer. After an incubation time of 1 hour at room temperature plates are measured using an EnVision™, Perkin Elmer.

Chain of human GPR40 receptor (O14842 whole entry): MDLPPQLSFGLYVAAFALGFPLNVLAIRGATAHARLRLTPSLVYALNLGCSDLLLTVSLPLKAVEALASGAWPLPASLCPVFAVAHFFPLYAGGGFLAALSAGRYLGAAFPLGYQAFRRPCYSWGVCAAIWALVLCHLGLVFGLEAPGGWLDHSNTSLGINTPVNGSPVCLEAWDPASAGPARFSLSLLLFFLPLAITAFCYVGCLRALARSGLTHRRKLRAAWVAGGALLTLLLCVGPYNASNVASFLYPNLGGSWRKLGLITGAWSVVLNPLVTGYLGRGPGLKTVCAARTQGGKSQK

## O=C(O)C[C@@H]1COc2cc(O[C@@H]3CCc4c(C5=CCCC56CCOCC6)cccc43)ccc21 [Example 47, {(S)-6-[(R)-4-(8-Oxa-spiro[4.5]dec-1-en-1-yl)-indan-1-yloxy]-2,3-dihydro-benzofuran-3-yl}-acetic acid]
  EC50: 71 nM

## COc1ccc(C(F)(F)F)c(-c2cccc3c2CC[C@H]3Oc2ccc3c(c2)OC[C@H]3CC(=O)O)n1 [Example 91, {(S)-6-[(R)-4-(6-Methoxy-3-trifluoromethyl-pyridin-2-yl)-indan-1-yloxy]-2,3-dihydro-benzofuran-3-yl}-acetic acid]
  EC50: 69 nM

## O=C(O)C[C@@H]1COc2cc(O[C@@H]3CCc4c(-c5cccnc5C(F)(F)F)cccc43)ccc21 [Example 73, {(S)-6-[(R)-4-(2-Trifluoromethyl-pyridin-3-yl)-indan-1-yloxy]-2,3-dihydro-benzofuran-3-yl}-acetic acid]
  EC50: 2720 nM

## Cc1cc2c(cc1O[C@@H]1CCc3c1cccc3C(F)(F)F)OCC2CC(=O)O (mixture of isomers) [Example 107, {5-Methyl-6-[(R)-4-trifluoromethyl-indan-1-yloxy]-2,3-dihydro-benzofuran-3-yl}-acetic acid]
  EC50: 6050 nM

## CO[C@@H](c1cccc2c1CC[C@H]2Oc1ccc2c(c1)OC[C@H]2CC(=O)O)C(F)(F)F (single isomer, unassigned) [Example 39, {(S)-6-[(R)-4-((S)*-2,2,2-Trifluoro-1-methoxy-ethyl)-indan-1-yloxy]-2,3-dihydro-benzofuran-3-yl}-acetic acid]
  EC50: 262 nM

## Cc1cccnc1-c1cccc2c1CC[C@H]2Oc1ccc2c(c1)OC[C@H]2CC(=O)O [Example 58, {(S)-6-[(R)-4-(3-Methyl-pyridin-2-yl)-indan-1-yloxy]-2,3-dihydro-benzofuran-3-yl}-acetic acid]
  EC50: 534 nM

## CC1(C)CCCO[C@H]1c1cccc2c1CC[C@H]2Oc1ccc2c(c1)OC[C@H]2CC(=O)O (single isomer, unassigned) [Example 67]
  EC50: 176 nM

## Cc1cccc(C)c1-c1ccc2c(c1)CC[C@H]2Oc1ccc2c(c1)OC[C@H]2CC(=O)O [Example 52, {(S)-6-[(R)-5-(2,6-Dimethyl-phenyl)-indan-1-yloxy]-2,3-dihydro-benzofuran-3-yl}-acetic acid]
  EC50: 113 nM

## CC(O)(c1cccc2c1CC[C@H]2Oc1ccc2c(c1)OC[C@H]2CC(=O)O)C(F)(F)F (stereo partly drawn) [Example 89, {(S)-6-[(R)-4-(2,2,2-Trifluoro-1-hydroxy-1-methyl-ethyl)-indan-1-yloxy]-2,3-dihydro-benzofuran-3-yl}-acetic acid]
  EC50: 428 nM

## CC1(C)CCC=C1c1cccc2c1CC[C@H]2Oc1ccc2c(c1)OC[C@H]2CC(=O)O [Example 40, {(S)-6-[(R)-4-(5,5-Dimethyl-cyclopent-1-enyl)-indan-1-yloxy]-2,3-dihydro-benzofuran-3-yl}-acetic acid]
  EC50: 13 nM

## Cc1cc(=O)n(C)c(C)c1-c1cccc2c1CC[C@H]2Oc1ccc2c(c1)OC[C@H]2CC(=O)O [Example 63, {(S)-6-[(R)-4-(1,2,4-Trimethyl-6-oxo-1,6-dihydro-pyridin-3-yl)-indan-1-yloxy]-2,3-dihydro-benzofuran-3-yl}-acetic acid]
  EC50: 3150 nM

## COCC(F)(F)c1cccc2c1CC[C@H]2Oc1ccc2c(c1)OC[C@H]2CC(=O)O [Example 79, {(S)-6-[(R)-4-(1,1-Difluoro-2-methoxy-ethyl)-indan-1-yloxy]-2,3-dihydro-benzofuran-3-yl}-acetic acid]
  EC50: 288 nM

## CO[C@@H](c1cccc2c1CC[C@H]2Oc1ccc2c(c1)OC[C@H]2CC(=O)O)C(C)(C)C (single isomer, unassigned) [Example 28, {(S)-6-[(R)-4-((R)*-1-Methoxy-2,2-dimethyl-propyl)-indan-1-yloxy]-2,3-dihydro-benzofuran-3-yl}-acetic acid]
  EC50: 25 nM

## Cc1cccc(C)c1-c1ccc2c(c1)[C@@H](Oc1ccc3c(c1)OC[C@H]3CC(=O)O)CC2 [Example 53, {(S)-6-[(S)-6-(2,6-Dimethyl-phenyl)-indan-1-yloxy]-2,3-dihydro-benzofuran-3-yl}-acetic acid]
  EC50: 211 nM

## COC(C)(c1cccc2c1CC[C@H]2Oc1ccc2c(c1)OC[C@H]2CC(=O)O)C(C)(C)C (stereo partly drawn) [Example 78, {(S)-6-[(R)-4-(1-Methoxy-1,2,2-trimethyl-propyl)-indan-1-yloxy]-2,3-dihydro-benzofuran-3-yl}-acetic acid]
  EC50: 76 nM

## N#Cc1cccnc1-c1cccc2c1CC[C@H]2Oc1ccc2c(c1)OC[C@H]2CC(=O)O [Example 46, {(S)-6-[(R)-4-(3-Cyano-pyridin-2-yl)-indan-1-yloxy]-2,3-dihydro-benzofuran-3-yl}-acetic acid]
  EC50: 982 nM

## Cc1noc(C)c1-c1cccc2c1CC[C@H]2Oc1ccc2c(c1)OC[C@H]2CC(=O)O [Example 74, {(S)-6-[(R)-4-(3,5-Dimethyl-isoxazol-4-yl)-indan-1-yloxy]-2,3-dihydro-benzofuran-3-yl}-acetic acid]
  EC50: 327 nM

## CO[C@H](c1cccc2c1CC[C@H]2Oc1ccc2c(c1)OC[C@H]2CC(=O)O)C(F)(F)F (single isomer, unassigned) [Example 38, {(S)-6-[(R)-4-((R)*-2,2,2-Trifluoro-1-methoxy-ethyl)-indan-1-yloxy]-2,3-dihydro-benzofuran-3-yl}-acetic acid]
  EC50: 131 nM

## Cc1cccc2cccc(-c3cccc4c3CC[C@H]4Oc3ccc4c(c3)OC[C@H]4CC(=O)O)c12 [Example 92, {(S)-6-[(R)-4-(8-Methyl-naphthalen-1-yl)-indan-1-yloxy]-2,3-dihydro-benzofuran-3-yl}-acetic acid]
  EC50: 7 nM

## O=C(O)C[C@@H]1COc2cc(O[C@@H]3CCc4c3ccc(F)c4F)ccc21 [Example 37, {(S)-6-[(R)-4,5-Difluoro-indan-1-yloxy]-2,3-dihydro-benzofuran-3-yl}-acetic acid]
  EC50: 78 nM

## CC1=C(c2cccc3c2CC[C@H]3Oc2ccc3c(c2)OC[C@H]3CC(=O)O)C(C)(C)CCC1 [Example 48, {(S)-6-[(R)-4-(2,6,6-Trimethyl-cyclohex-1-enyl)-indan-1-yloxy]-2,3-dihydro-benzofuran-3-yl}-acetic acid]
  EC50: 16 nM

## O=C(O)C[C@@H]1COc2cc(O[C@H]3CCc4ccc(C(F)(F)F)cc43)ccc21 [Example 50, {(S)-6-[(S)-6-Trifluoromethyl-indan-1-yloxy]-2,3-dihydro-benzofuran-3-yl]-acetic acid]
  EC50: 2970 nM

## Cc1ccnc(C)c1-c1cccc2c1CC[C@H]2Oc1ccc2c(c1)OC[C@H]2CC(=O)O [Example 93, {(S)-6-[(R)-4-(2,4-Dimethyl-pyridin-3-yl)-indan-1-yloxy]-2,3-dihydro-benzofuran-3-yl}-acetic acid]
  EC50: 61 nM

## O=C(O)C[C@@H]1COc2cc(O[C@@H]3CCc4c(C5CC5)cccc43)ccc21 [Example 31, {(S)-6-[(R)-4-Cyclopropyl-indan-1-yloxy]-2,3-dihydro-benzofuran-3-yl}-acetic acid]
  EC50: 168 nM

## O=C(O)C[C@@H]1COc2cc(OC3CCc4ccccc43)ccc21 (stereo partly shown) [Example 43]
  EC50: 420 nM

## O=C(O)C[C@@H]1COc2cc(O[C@@H]3CCc4c3cccc4-n3ccccc3=O)ccc21 [Example 51, {(S)-6-[(R)-4-(2-Oxo-2H-pyridin-1-yl)-indan-1-yloxy]-2,3-dihydro-benzofuran-3-yl}-acetic acid]
  EC50: 9670 nM

## Cc1nccnc1-c1cccc2c1CC[C@H]2Oc1ccc2c(c1)OC[C@H]2CC(=O)O [Example 99, {(S)-6-[(R)-4-(3-Methyl-pyrazin-2-yl)-indan-1-yloxy]-2,3-dihydro-benzofuran-3-yl}-acetic acid]
  EC50: 3270 nM

## Cn1ccnc1-c1cccc2c1CC[C@H]2Oc1ccc2c(c1)OC[C@H]2CC(=O)O [Example 57, {(S)-6-[(R)-4-(1-methyl-1H-imidazol-2-yl)-indan-1-yloxy]-2,3-dihydro-benzofuran-3-yl}-acetic acid]
  EC50: 8900 nM

## CC(C)(C)c1cccc2c1CC[C@H]2Oc1ccc2c(c1)OC[C@H]2CC(=O)O [Example 96, {(S)-6-[(R)-4-tert-Butyl-indan-1-yloxy]-2,3-dihydro-benzofuran-3-yl}-acetic acid]
  EC50: 36 nM

## Cc1ccc2c(c1C(F)(F)F)CC[C@H]2Oc1ccc2c(c1)OC[C@H]2CC(=O)O [Example 36, {(S)-6-[(R)-5-Methyl-4-trifluoromethyl-indan-1-yloxy]-2,3-dihydro-benzofuran-3-yl}-acetic acid]
  EC50: 19 nM

## CC(C)c1ccccc1-c1cccc2c1CC[C@H]2Oc1ccc2c(c1)OC[C@H]2CC(=O)O [Example 35, {(S)-6-[(R)-4-(2-Isopropyl-phenyl)-indan-1-yloxy]-2,3-dihydro-benzofuran-3-yl}-acetic acid]
  EC50: 4 nM

## CC1(C)CCC[C@H]1c1cccc2c1CC[C@H]2Oc1ccc2c(c1)OC[C@H]2CC(=O)O (single isomer, unassigned) [Example 76]
  EC50: 95 nM

## O=C(O)C[C@@H]1COc2cc(O[C@H]3CCc4ccc(Br)cc43)ccc21 [Example 55, {(S)-6-[(S)-6-Bromo-indan-1-yloxy]-2,3-dihydro-benzofuran-3-yl}-acetic acid]
  EC50: 2910 nM

## Cc1ccc(O)cc1-c1cccc2c1CC[C@H]2Oc1ccc2c(c1)OC[C@H]2CC(=O)O [Example 72, {(S)-6-[(R)-4-(5-Hydroxy-2-methyl-phenyl)-indan-1-yloxy]-2,3-dihydro-benzofuran-3-yl}-acetic acid]
  EC50: 98 nM
